pIC50: −log10 of the molar value.
Target: T1, Glutathione reductase, mitochondrial (Homo sapiens, UniProt P00390)
T1 sequence (P00390 whole entry): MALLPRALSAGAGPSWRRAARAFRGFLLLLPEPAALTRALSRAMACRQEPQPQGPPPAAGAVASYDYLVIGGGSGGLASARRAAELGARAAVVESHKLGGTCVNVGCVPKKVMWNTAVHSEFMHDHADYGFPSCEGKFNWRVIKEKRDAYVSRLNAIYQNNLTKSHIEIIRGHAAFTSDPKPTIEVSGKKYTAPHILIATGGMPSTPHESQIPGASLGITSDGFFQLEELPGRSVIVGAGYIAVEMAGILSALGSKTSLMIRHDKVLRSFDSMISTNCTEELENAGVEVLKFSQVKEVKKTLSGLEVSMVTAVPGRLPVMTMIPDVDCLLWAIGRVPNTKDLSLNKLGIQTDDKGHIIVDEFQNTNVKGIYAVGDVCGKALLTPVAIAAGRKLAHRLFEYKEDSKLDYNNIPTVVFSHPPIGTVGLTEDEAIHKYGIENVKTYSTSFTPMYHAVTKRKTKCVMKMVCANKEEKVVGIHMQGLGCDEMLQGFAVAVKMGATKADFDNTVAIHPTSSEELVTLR
Assay: Inhibitory concentration against human glutathione reductase

pIC50: 6.00
Structure (SMILES): O=C(Cc1ccc2ccc(NC(=O)C[N]3CC[NH][Pt]3([Cl])[Cl])cc2c1)NNC(=O)c1ccc([N+](=O)[O-])o1 [2-(2-Amino-ethylamino)-N-(7-{2-[N'-(5-nitro-furan-2-carbonyl)-hydrazino]-2-oxo-ethyl}-naphthalen-2-yl)-acetamide; compound with GENERIC INORGANIC NEUTRAL COMPONENT]
